Data taken from patent US4473578A, “β-Lactam antibiotics and their use” (Beecham Group Limited, priority 1979, dated 1984).
Values after ≈ are worked out from the molar mass of the structure shown. Where a name gives a salt, the structure may show the parent alone. Read-outs that look alike come from different tables or passages of the source.

Legend:
Assay in all cases: MIC in agar
Format in all cases: cell-based
Escherichia coli JT39 = tested on: Escherichia coli JT39
From the text: (§1) a. Antibacterial effectiveness of compounds of
(§2) Examples 6 and 7 in agar.
(§3) (μg/ml) in agar of compound

[1] = tested on: Staphylococcus aureus Oxford
From the text: as §1, §2, §3

[2] = tested on: Salmonella typhimurium CT10; settings: for MIC: Salmonella enterica
From the text: as §1, §2, §3

[3] = tested on: Streptococcus pyogenes CN10
From the text: as §1, §2, §3

Proteus morganii 1580 = settings: for MIC: Morganella morganii
From the text: as §1, §2, §3

[4] = tested on: Staphylococcus aureus 1517
From the text: as §1, §2, §3

Streptococcus faecalis I = settings: for MIC: Enterococcus faecalis
From the text: as §1, §2, §3

Escherichia coli 0111 = tested on: Escherichia coli 0111
From the text: as §1, §2, §3

Proteus vulgaris W091 = tested on: Proteus vulgaris W091
From the text: as §1, §2, §3

Proteus rettgeri WM16 = settings: for MIC: Providencia rettgeri
From the text: as §1, §2, §3

[5] = tested on: Staphylococcus aureus Russell
From the text: as §1, §2, §3

Pseudomonas aeruginosa A = tested on: Pseudomonas aeruginosa A
From the text: as §1, §2, §3

Enterobacter cloacae N1 = tested on: Enterobacter cloacae N1
From the text: as §1, §2, §3

Bacillus subtilis A = settings: for MIC: Bacillus subtilis
From the text: as §1, §2, §3

Citrobacter freundii E8 = tested on: Citrobacter freundii E8
From the text: as §1, §2, §3

Proteus mirabilis C977 = tested on: Proteus mirabilis C977
From the text: as §1, §2, §3

Shigella sonnei MB 11967 = settings: for MIC: MB11967
From the text: as §1, §2, §3

Serratia marcescens US20 = tested on: Serratia marcescens US20
From the text: as §1, §2, §3

Klebsiella aerogenes A = tested on: Klebsiella aerogenes A
From the text: as §1, §2, §3

E. coli ESS = settings: Escherichia coli
From the text: | (μg/ml) in agar of compound

[6] = in agar, Escherichia coli JT39, read-out: M.I.C.
[7] = in agar, Staphylococcus aureus Oxford, read-out: M.I.C.
[8] = in agar, Salmonella typhimurium CT10, read-out: M.I.C.
[9] = in agar, Proteus morganii 1580, read-out: M.I.C.
[10] = in agar, Staphylococcus aureus 1517, read-out: M.I.C.
[11] = in agar, Streptococcus faecalis I, read-out: M.I.C.
[12] = in agar, Proteus vulgaris W091, read-out: M.I.C.
[13] = in agar, Proteus rettgeri WM16, read-out: M.I.C.
[14] = in agar, Staphylococcus aureus Russell, read-out: M.I.C.
[15] = in agar, Pseudomonas aeruginosa A, read-out: M.I.C.
[16] = in agar, Enterobacter cloacae N1, read-out: M.I.C.
[17] = in agar, Citrobacter freundii E8, read-out: M.I.C.
[18] = in agar, Proteus mirabilis C977, read-out: M.I.C.
[19] = in agar, Serratia marcescens US20, read-out: M.I.C.
[20] = in agar, Klebsiella aerogenes A, read-out: M.I.C.

SMILES: CSC1=C(C(=O)[O-])N2C(=O)[C@H]([C@H](C)O)[C@H]2C1.[Na+] [Example 6, Sodium (5R, 6S)-3-methylthio-6-[(S)-1-hydroxyethyl]-7-oxo-1-azabicyclo[3.2.0]hept-2-ene-2-carboxylate]
- MIC (Escherichia coli JT39; Escherichia coli, JT39): 12.5 µg/mL
- MIC ([1]; Staphylococcus aureus): 3.1 µg/mL
- MIC ([2]; TYPHIMURIUM): 12.5 µg/mL
- MIC ([3]; Streptococcus pyogenes, CN10): 25 µg/mL
- MIC (Proteus morganii 1580; 1580): 25 µg/mL
- MIC ([4]; Staphylococcus aureus, 1517): 100 µg/mL
- MIC (Streptococcus faecalis I): > 100 µg/mL
- MIC (Escherichia coli 0111): 12.5 µg/mL
- MIC (Proteus vulgaris W091; Proteus vulgaris, W091): 25 µg/mL
- MIC (Proteus rettgeri WM16; WM16): 25 µg/mL
- MIC ([5]; Staphylococcus aureus): 6.2 µg/mL
- MIC (Pseudomonas aeruginosa A; Pseudomonas aeruginosa): > 100 µg/mL
- MIC (Enterobacter cloacae N1; Enterobacter cloacae, N1): 28 µg/mL
- MIC (Bacillus subtilis A): 25 µg/mL
- MIC (Citrobacter freundii E8; Citrobacter freundii, E8): 12.5 µg/mL
- MIC (Proteus mirabilis C977; Proteus mirabilis, C977): 50 µg/mL
- MIC (Shigella sonnei MB 11967): 12.5 µg/mL
- MIC (Serratia marcescens US20; Serratia marcescens, US20): 12.5 µg/mL
- MIC (Klebsiella aerogenes A; Klebsiella aerogenes): 12.5 µg/mL

SMILES: CCSC1=C(C(=O)[O-])N2C(=O)[C@H]([C@H](C)O)[C@H]2C1.[Na+] [Example 7]
- M.I.C. (Escherichia coli JT39; in agar, Escherichia coli JT39): 2.5 µg/mL
- M.I.C. ([1]; in agar, Staphylococcus aureus Oxford): 1.2 µg/mL
- M.I.C. ([2]; in agar, Salmonella typhimurium CT10): 2.5 µg/mL
- M.I.C. ([3]; in agar, Streptococcus pyogenes CN10): 1.2 µg/mL
- M.I.C. (Proteus morganii 1580; in agar, Proteus morganii 1580): 2.5 µg/mL
- M.I.C. (Streptococcus faecalis I; in agar, Streptococcus faecalis I): > 50 µg/mL
- M.I.C. (Escherichia coli 0111): 5.0 µg/mL
- M.I.C. (Proteus vulgaris W091; in agar, Proteus vulgaris W091): 5.0 µg/mL
- M.I.C. (Proteus rettgeri WM16; in agar, Proteus rettgeri WM16): 5.0 µg/mL
- M.I.C. ([5]; in agar, Staphylococcus aureus Russell): 1.2 µg/mL
- M.I.C. (Pseudomonas aeruginosa A; in agar, Pseudomonas aeruginosa A): > 50 µg/mL
- M.I.C. (Enterobacter cloacae N1; in agar, Enterobacter cloacae N1): 5.0 µg/mL
- M.I.C. (Bacillus subtilis A; in agar, Bacillus subtilis A): 5.0 µg/mL
- M.I.C. (Citrobacter freundii E8; in agar, Citrobacter freundii E8): 2.5 µg/mL
- M.I.C. (Proteus mirabilis C977; in agar, Proteus mirabilis C977): 12.5 µg/mL
- M.I.C. (Shigella sonnei MB 11967): 5.0 µg/mL
- M.I.C. (Serratia marcescens US20; in agar, Serratia marcescens US20): 5.0 µg/mL
- M.I.C. (Klebsiella aerogenes A; in agar, Klebsiella aerogenes A): 2.5 µg/mL

SMILES: C[C@H](OS(=O)(=O)O)[C@@H]1C(=O)N2C(C(=O)O)=C(S/C=C\C(=O)O)C[C@H]12 [Example 22, The Trisodium salt of (5R,6R)-3-[(Z)-2-carboxyethenylthio]-6-[(S)-1-hydroxysulphonyloxyethyl]-7-oxo-1-azabicyclo[3.2.0]hept-2-ene-2-carboxylic acid]
- MIC (E. coli ESS): 1.2 µg/mL
- MIC (Escherichia coli JT39; [6]): 1.2 µg/mL
- MIC [1, 7]: 2.5 µg/mL
- MIC [2, 8]: 1.2 µg/mL
- MIC (Proteus morganii 1580; [9]): 0.5 µg/mL
- MIC [4, 10]: 25 µg/mL
- MIC (Streptococcus faecalis I; [11]): 12.5 µg/mL
- MIC (Escherichia coli 0111): 1.2 µg/mL
- MIC (Proteus vulgaris W091; [12]): 1.2 µg/mL
- MIC (Proteus rettgeri WM16; [13]): 1.2 µg/mL
- MIC [5, 14]: 2.5 µg/mL
- MIC (Pseudomonas aeruginosa A; [15]): > 50 µg/mL
- MIC (Enterobacter cloacae N1; [16]): 0.5 µg/mL
- MIC (Bacillus subtilis A): 0.5 µg/mL
- MIC (Citrobacter freundii E8; [17]): 25 µg/mL
- MIC (Proteus mirabilis C977; [18]): 1.2 µg/mL
- MIC (Shigella sonnei MB 11967): 1.2 µg/mL
- MIC (Serratia marcescens US20; [19]): 5 µg/mL
- MIC (Klebsiella aerogenes A; [20]): 1.2 µg/mL

SMILES: C[C@H](O)[C@H]1C(=O)N2C(C(=O)O)=C(S/C=C\C(=O)OCCN)C[C@H]12 [Example 18, (5R,6S)-3-[2-(Z)-(2-Aminoethoxycarbonyl)ethenylthio]-6-[(S)-1-hydroxyethyl]-7-oxo-1-azabicyclo[3.2.0]hept-2-ene-2-carboxylic acid]
- MIC (E. coli ESS): 1 µg/mL (≈ 2.92 µM)
- MIC (Escherichia coli JT39; [6]): 3.1 µg/mL (≈ 9.05 µM)
- MIC [1, 7]: ≤ 0.1 µg/mL
- MIC [2, 8]: 3.1 µg/mL (≈ 9.05 µM)
- MIC ([3]; in agar, Streptococcus pyogenes CN10, read-out: M.I.C.): ≤ 0.1 µg/mL
- MIC (Proteus morganii 1580; [9]): 3.1 µg/mL (≈ 9.05 µM)
- MIC [4, 10]: 6.2 µg/mL (≈ 18.1 µM)
- MIC (Streptococcus faecalis I; [11]): 12.5 µg/mL (≈ 36.5 µM)
- MIC (Escherichia coli 0111): 3.1 µg/mL (≈ 9.05 µM)
- MIC (Proteus vulgaris W091; [12]): 6.2 µg/mL (≈ 18.1 µM)
- MIC (Proteus rettgeri WM16; [13]): 6.2 µg/mL (≈ 18.1 µM)
- MIC [5, 14]: 0.4 µg/mL (≈ 1.17 µM)
- MIC (Pseudomonas aeruginosa A; [15]): 25 µg/mL (≈ 73 µM)
- MIC (Enterobacter cloacae N1; [16]): 3.1 µg/mL (≈ 9.05 µM)
- MIC (Citrobacter freundii E8; [17]): 3.1 µg/mL (≈ 9.05 µM)
- MIC (Proteus mirabilis C977; [18]): 12.5 µg/mL (≈ 36.5 µM)
- MIC (Shigella sonnei MB 11967): 3.1 µg/mL (≈ 9.05 µM)
- MIC (Serratia marcescens US20; [19]): 1.2 µg/mL (≈ 3.5 µM)
- MIC (Klebsiella aerogenes A; [20]): 3.1 µg/mL (≈ 9.05 µM)
